Assay results: patent publication US10722501B2 (BAYER AKTIENGESELLSCHAFT, priority 2016, dated 2020)

molecular target: T1, recombinant full-length human prolyl endopeptidase (PREP) (Homo sapiens, UniProt P48147); experiment: Biochemical human prolyl endopeptidase (PREP) assay with fluorescently labelled substrate; conditions: substrate Z-Gly-Pro-AMC 50 μM, 32° C., 60 min; some as mean values from multiple independent determinations
T1 construct: To recombinant full-length human prolyl endopeptidase (PREP, R&D-Systems, 4308-SE); purchased R&D-Systems 4308-SE
T1 sequence (P48147 1-710): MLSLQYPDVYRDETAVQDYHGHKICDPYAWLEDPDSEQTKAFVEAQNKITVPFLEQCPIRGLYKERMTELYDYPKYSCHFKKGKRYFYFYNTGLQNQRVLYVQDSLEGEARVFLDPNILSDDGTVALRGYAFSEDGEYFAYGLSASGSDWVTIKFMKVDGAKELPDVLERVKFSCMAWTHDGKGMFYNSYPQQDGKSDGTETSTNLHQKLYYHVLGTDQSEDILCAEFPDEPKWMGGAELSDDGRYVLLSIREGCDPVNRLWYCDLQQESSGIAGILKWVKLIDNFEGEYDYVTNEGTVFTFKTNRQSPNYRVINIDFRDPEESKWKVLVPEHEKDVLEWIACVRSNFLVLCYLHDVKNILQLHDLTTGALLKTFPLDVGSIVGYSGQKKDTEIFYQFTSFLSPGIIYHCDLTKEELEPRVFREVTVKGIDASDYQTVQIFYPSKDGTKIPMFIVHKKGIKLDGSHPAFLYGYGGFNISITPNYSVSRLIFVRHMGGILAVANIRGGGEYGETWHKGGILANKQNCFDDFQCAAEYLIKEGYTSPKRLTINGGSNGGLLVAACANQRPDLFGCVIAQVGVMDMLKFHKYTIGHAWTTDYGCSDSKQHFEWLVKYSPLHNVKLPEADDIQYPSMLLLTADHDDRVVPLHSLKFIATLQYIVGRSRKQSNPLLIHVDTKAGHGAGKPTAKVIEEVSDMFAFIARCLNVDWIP
In short: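 Initial rates of fluorescence increase from 50 μM Z-Gly-Pro-AMC cleavage (ex 360/em 465 nm, 60 min, 32° C) give percent PREP activity versus no-compound control, and IC50 is interpolated. Enzyme used at 0.4 nM (final, example) in Tris pH 7.5 with EDTA, GSH, BSA and Brij-35; compounds span 1 nM to 30 μM.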

Structure (SMILES)	IC50
O=C(C1C(C(F)(F)F)CCc2nn(Cc3ncc(Cl)cc3F)c(=O)n21)N1CCC(F)(F)C1 (racemic) [Example 296, (5RS,6RS)-2-[(5-Chloro-3-fluoropyridin-2-yl)methyl]-5-[(3,3-difluoropyrrolidin-1-yl)carbonyl]-6-(trifluoromethyl)-5,6,7,8-tetrahydro[1,2,4]triazolo[4,3-a]pyridin-3(2H)-one]	180 nM
O=C(C1CC(C(F)(F)F)Cc2nn(Cc3ccc(Cl)nc3)c(=O)n21)N1CCC(F)(F)C1 (racemic) [Example 230, (5RS,7RS)-2-[(6-Chloropyridin-3-yl)methyl]-5-[(3,3-difluoropyrrolidin-1-yl)carbonyl]-7-(trifluoromethyl)-5,6,7,8-tetrahydro[1,2,4]triazolo[4,3-a]pyridin-3(2H)-one]	2.3 nM
COc1ccc(C2(Cn3nc4n(c3=O)[C@H](C(=O)N3CC(F)C3)CCC4)CC2)cc1 [Example 357, (5S)-5-[(3-Fluoroazetidin-1-yl)carbonyl]-2-{[1-(4-methoxyphenyl)cyclopropyl]methyl}-5,6,7,8-tetrahydro[1,2,4]triazolo[4,3-a]pyridin-3(2H)-one]	0.43 nM
O=C(C1CCC(C(F)(F)F)c2nn(Cc3ccc(C(F)(F)F)nc3)c(=O)n21)N1CC[C@H](F)C1 (mixture of isomers) [Example 271, (5RS,8RS)-5-{[(3S)-3-Fluoropyrrolidin-1-yl]carbonyl}-8-(trifluoromethyl)-2-{[6-(trifluoromethyl)pyridin-3-yl]methyl}-5,6,7,8-tetrahydro[1,2,4]triazolo[4,3-a]pyridin-3(2H)-one]	1.1 nM
O=C([C@@H]1CCCc2nn(Cc3nc(C(F)(F)F)no3)c(=O)n21)N1CCC(F)(F)C1 [Example 501, (5S)-5-[(3,3-Difluoropyrrolidin-1-yl)carbonyl]-2-{[3-(trifluoromethyl)-1,2,4-oxadiazol-5-yl]methyl}-5,6,7,8-tetrahydro[1,2,4]triazolo[4,3-a]pyridin-3(2H)-one]	25.5 nM
O=C([C@@H]1CCCc2nn(Cc3ccc(C(F)(F)F)nc3)c(=O)n21)N1CCC(F)(F)C1 [Example 426, (5S)-5-[(3,3-Difluoropyrrolidin-1-yl)carbonyl]-2-{[6-(trifluoromethyl)pyridin-3-yl]methyl}-5,6,7,8-tetrahydro[1,2,4]triazolo[4,3-a]pyridin-3(2H)-one]	6.93 nM
Cc1ccc(Cn2nc3n(c2=O)C(C(=O)N2CCCC2)CCC3C)cc1 (racemic) [Example 223, (5RS,8RS)-8-Methyl-2-(4-methylbenzyl)-5-(pyrrolidin-1-ylcarbonyl)-5,6,7,8-tetrahydro[1,2,4]triazolo[4,3-a]pyridin-3(2H)-one]	0.415 nM
CC(c1ccc(Cl)cc1)n1nc2n(c1=O)C(C(=O)N1CCCC1)CCC2 (single isomer, unassigned) [Example 5, (5RS)-2-[(1 RS)-1-(4-Chlorophenyl)ethyl]-5-(pyrrolidin-1-ylcarbonyl)-5,6,7,8-tetrahydro[1,2,4]triazolo[4,3-a]pyridin-3(2H)-one]	8 nM
O=C(C1CCc2nn(Cc3ccnc(C(F)(F)F)c3F)c(=O)n21)N1C[C@@H](F)[C@@H](F)C1 (single isomer, unassigned) [Example 177]	6.9 nM
O=C([C@@H]1CCCc2nn(CCc3ncc(C(F)(F)F)cc3Cl)c(=O)n21)N1CC[C@H](F)C1 [Example 342, (5S)-2-{2-[3-Chloro-5-(trifluoromethyl)pyridin-2-yl]ethyl}-5-{[(3S)-3-fluoropyrrolidin-1-yl]carbonyl}-5,6,7,8-tetrahydro[1,2,4]triazolo[4,3-a]pyridin-3(2H)-one]	1.75 nM
O=C(C1CCCc2nn(Cc3ccc4c(c3)CCC4)c(=O)n21)N1CCCC1 (racemic) [Example 11, (5RS)-2-(2,3-Dihydro-1H-inden-5-ylmethyl)-5-(pyrrolidin-1-ylcarbonyl)-5,6,7,8-tetrahydro[1,2,4]triazolo[4,3-a]pyridin-3(2H)-one]	0.7 nM
O=C(C1CC(C(F)(F)F)Cc2nn(Cc3ccc(Cl)nc3)c(=O)n21)N1C[C@@H](F)[C@@H](F)C1 (single isomer, unassigned) [Example 249]	0.83 nM
O=C(C1CC(C(F)(F)F)Cc2nn(Cc3ncc(Cl)cc3F)c(=O)n21)N1C[C@@H](F)[C@@H](F)C1 (mixture of isomers) [Example 266, (5RS,7RS)-2-[(5-Chloro-3-fluoropyridin-3-yl)methyl]-5-{[(3R,4S)-3,4-difluoropyrrolidin-1-yl]carbonyl}-7-(trifluoromethyl)-5,6,7,8-tetrahydro[1,2,4]triazolo[4,3-a]pyridin-3(2H)-one]	5.1 nM
O=C([C@@H]1CCC(F)(F)c2nn(Cc3ccc(C(F)(F)F)nc3)c(=O)n21)N1CC[C@H](F)C1 [Example 278, (5S)-8,8-Difluoro-5-{[(3S)-3-fluoropyrrolidin-1-yl]carbonyl}-2-{[6-(trifluoromethyl)pyridin-3-yl]methyl}-5,6,7,8-tetrahydro[1,2,4]triazolo[4,3-a]pyridin-3(2H)-one]	3.3 nM
O=C(C1CC(C(F)(F)F)Cc2nn(Cc3ccc(Cl)nc3)c(=O)n21)N1CCCC1 (single isomer, unassigned) [Example 228, (5RS,7RS)-2-[(6-Chloropyridin-3-yl)methyl]-5-(pyrrolidin-1-ylcarbonyl)-7-(trifluoromethyl)-5,6,7,8-tetrahydro[1,2,4]triazolo[4,3-a]pyridin-3(2H)-one]	2.2 nM
O=C(C1CC(C(F)(F)F)Cc2nn(Cc3ccc(C(F)(F)F)nc3)c(=O)n21)N1CC[C@H](F)C1 (mixture of isomers) [Example 236, (5RS,7RS)-5-{[(3S)-3-Fluoropyrrolidin-1-yl]carbonyl}-7-(trifluoromethyl)-2-{[6-(trifluoromethyl)pyridin-3-yl]methyl}-5,6,7,8-tetrahydro[1,2,4]triazolo[4,3-a]pyridin-3(2H)-one]	1.4 nM
O=C([C@@H]1CCCc2nn(Cc3ccc(Cl)c(F)c3)c(=O)n21)N1C[C@@H](F)[C@@H](F)C1 [Example 462, (5S)-2-(4-Chloro-3-fluorobenzyl)-5-{[(3R,4S)-3,4-difluoropyrrolidin-1-yl]carbonyl}-5,6,7,8-tetrahydro[1,2,4]triazolo[4,3-a]pyridin-3(2H)-one]	0.285 nM
CC1Cc2nn(Cc3ccnc(C(F)(F)F)c3F)c(=O)n2C(C(=O)N2CC(F)C2)C1 (racemic) [Example 335, (5RS,7RS)-5-[(3-Fluoroazetidin-1-yl)carbonyl]-2-{[3-fluoro-2-(trifluoromethyl)pyridin-4-yl]methyl}-7-methyl-5,6,7,8-tetrahydro[1,2,4]triazolo[4,3-a]pyridin-3(2H)-one]	1.05 nM
COc1ccc(Cn2nc3n(c2=O)[C@H](C(=O)N2CC[C@H](F)C2)CCC3)cn1 [Example 430, (5S)-5-{[(3S)-3-Fluoropyrrolidin-1-yl]carbonyl}-2-[(6-methoxypyridin-3-yl)methyl]-5,6,7,8-tetrahydro[1,2,4]triazolo[4,3-a]pyridin-3(2H)-one]	1.1 nM
O=C(C1CCCc2nn(Cc3cccc(C(F)(F)F)c3)c(=O)n21)N1CC(O)C1 (single isomer, unassigned) [Example 98, (5RS)-5-[(3-Hydroxyazetidin-1-yl)carbonyl]-2-[3-(trifluoromethyl)benzyl]-5,6,7,8-tetrahydro[1,2,4]triazolo[4,3-a]pyridin-3(2H)-one]	257 nM
